Experimental data reported in patent EP0416804B1, “External preparation containing amusulosin” (YAMANOUCHI PHARMACEUTICAL CO., LTD., priority 1989, dated 1991).
Values after ≈ are worked out from the molar mass of the structure shown. Where two headings read alike, the source gives them in different places.

Experiments:
[1] = Solubility of AB-250 in water, ethanol and aqueous alcohol; assay type: physicochemical
Source text: 1. Data on the solubility increasing effect of aqueous alcohol:
The solubility of AB-250 in water of pH 5-7 was 0.4% and that in ethanol was 0.03%.
It is, thus, evident that the use of aqueous ethanol results in a remarkable increase in the solubility of the active compound.

ai-receptor = details: compared with prazosin hydrochloride; cited from earlier work
[2] = system: rabbit prostate, urethra and vesical triangle (trigone of the bladder); details: rabbit tissues; cited from earlier work
[3] = system: human urethra and vesical triangle; details: human tissues; cited from earlier work

| solubility ([1]; 50% ethanol, organic solvent or mixture, Michaelis buffer containing 50% of ethanol, pH 8, read-out: solubility in aqueous ethanol containing 50% of ethanol) | solubility ([1]; 60% ethanol, organic solvent or mixture, Michaelis buffer containing 60% of ethanol, pH 7, read-out: solubility in aqueous ethanol containing 60% of ethanol) | greater solubility in aqueous alcohol ([1]; aqueous alcohol compared with water and pure alcohol) | solubility ([1]; ethanol, organic solvent or mixture, read-out: solubility in ethanol) | solubility increasing effect with isopropyl alcohol in lieu of ethanol ([1]; isopropyl alcohol used in lieu of ethanol) | solubility ([1]; water of pH 5-7, read-out: solubility in water) | Structure (SMILES) | ai-receptor blocking activity (ai-receptor) | contraction of the rabbit prostate, urethra and vesical triangle [2] | contraction of the human urethra and vesical triangle [3] |
| --- | --- | --- | --- | --- | --- | --- | --- | --- | --- |
| 51 mg/mL (≈ 125 mM) | 48 mg/mL (≈ 117 mM) | no less than 10 fold | 0.3 mg/mL (≈ 0.734 mM) | More or less the same effect | 4 mg/mL (≈ 9.79 mM) | CCOc1ccccc1OCCNC(C)Cc1ccc(OC)c(S(N)(=O)=O)c1 (stereo not drawn) [AB-250, 5-[2-[[2-(o-Ethoxyphenoxy)-ethyl]amino]propyl]-2-methoxybenzenesulfonamide] | – | – | – |
| – | – | – | – | – | – | CCOc1ccccc1OCCNC(C)Cc1ccc(OC)c(S(N)(=O)=O)c1 (stereo not drawn) [amusulosin, 5-[2-[[2-(o-Ethoxyphenoxy)-ethyl]amino]propyl]-2-methoxybenzenesulfonamide] | higher than that of prazosin hydrochloride | reduces the contraction | reduces the contraction |
